Consider two molecules from the NIST ThermoML archive (doi:10.1021/je0497698).

For this data set the following is noted: Liquid.

Each structure is given as a SMILES string. ± gives the expanded uncertainty stated by the source.

With `FCF` [difluoromethane], the “vapor or sublimation pressure” value runs as follows: (273.15 K) 816.8 ± 2.2 kPa; (283.15 K) 1111.8 ± 2.2 kPa; (293.15 K) 1480.2 ± 2.4 kPa; (303.15 K) 1930.4 ± 2.5 kPa; (313.15 K) 2478 ± 2.8 kPa.

Consider `C=CC` [propene], for which the “vapor or sublimation pressure” value runs as follows: (273.15 K) 587.8 ± 2.1 kPa; (283.15 K) 781.2 ± 2.1 kPa; (293.15 K) 1020.2 ± 2.2 kPa; (303.15 K) 1308.2 ± 2.3 kPa; (313.15 K) 1650.8 ± 2.5 kPa.
